From article PMC6831561, “Pharmacological and Behavioral Effects of the Synthetic Cannabinoid AKB48 in Rats” (Frontiers in Neuroscience, 2019) come the findings set out here.

Common to all, as to format: in vivo
The subject of test [1] is rats. Briefly: Visual object response test. The source says:
Visual response was verified by two behavioral tests that evaluated the ability of the rat to capture visual information even when stationary (the visual object response) or when moving (the visual placing response). The visual object response test was used to evaluate the ability of the rat to see an object approaching from the front or the side, inducing the animal to shift or turn its head or to retreat (modified from [Ossato et al., 2015]; [Marti et al., 2019]). For the frontal visual response, a white horizontal bar was moved frontally to the rat’s head; the maneuver was repeated three times. For the lateral visual response, a small dentist’s mirror was moved into the rat’s field of view in a horizontal arc until the stimulus was between the rat’s eyes. The procedure was conducted bilaterally and was repeated three times. The score assigned was a value of 1 if there was a reflection in the rat movement or 0 if not. The total value was calculated by adding the scores obtained in the frontal with that obtained in the lateral visual object response (overall score 9). Evaluation of the visual object response was measured at 0, 10, 30, 60, 120, and 180 min post-injection. The visual placing response test was performed using a tail suspension-modified apparatus able to bring the rat toward the floor at a constant speed of 10 cm/sec (modified from [Ossato et al., 2015]; [Marti et al., 2019]). The downward movement of the rat was videotaped. Frame-by-frame analysis allowed us to evaluate the beginning of the reaction of the rat while it was close to the floor. When the rat started the reaction, an electronic ruler evaluated the perpendicular distance in millimeters between the eyes of the rat to the floor. The naïve rats perceived the floor and prepared for contact at a distance of about 27 ± 4.5 mm. Evaluation of the visual placing response was measured at 0, 15, 35, 65, 125, and 190 min post-injection.

The test system of test [2] is rats. Briefly: Overall tactile response (vibrissae, pinna, corneal reflexes). The procedure: Tactile responses were verified through vibrissae, pinna, and corneal reflexes ([Marti et al., 2019]), and data were expressed as the sum of these parameters. The vibrissae reflex was evaluated by touching the vibrissae (right and left) with a thin hypodermic needle once per side, giving a value of 1 if there was a reflex (turning of the head to the side of touch or vibrissae movement) or 0 if not present (overall score 2). Evaluation of the vibrissae reflex was measured at 0, 10, 30, 60, 120, and 180 min post-injection. The pinna reflex was assessed by touching the pavilions (left and right) with a thin hypodermic needle, the interior pavilions first. This test was repeated twice per side, giving a value of 1 if there was a reflex and 0 if not present (overall score 4). Evaluation of the pinna reflex was measured at 0, 10, 30, 60, 120, and 180 min post-injection. The corneal reflex was assessed by gently touching the cornea with a thin hypodermic needle and evaluating the response, assigning a value of 1 if the rat moved only its head, 2 if it only closed its eyelid, and 3 if it closed its lid and moved its head. The procedure was conducted bilaterally (overall score 6) and was measured at 0, 10, 30, 60, 120, and 180 min post-injection.

Test [3] concerns rats. Briefly: Tail pinch test (acute mechanical nociception). The procedure: Acute mechanical nociception was evaluated using the tail pinch tests (modified by [Vigolo et al., 2015]). A special rigid probe connected to a digital dynamometer (ZP-50N, IMADA, Japan) was gently placed on the tail (in the distal portion), and progressive pressure was applied. When the rat flicked its tail, the pressure was stopped, and the digital instrument saved the maximum peak of weight supported (g/force). A cut-off (500 g/force) was set to avoid tissue damage. The test was repeated three times, and the final value was calculated with the average of three obtained scores. Acute mechanical nociception was measured at 0, 20, 40, 70, 140, and 195 min post-injection.

Test [4] relates to rats. Briefly: Open field test and gross behavior test. How it is done: An open field, used to measure locomotor activity, consisted of a wooden chamber (45 cm high) with a circular base (75 cm diameter). The floor was divided into 12 sections of similar area by two concentric circles and radial segments. The apparatus was placed in a sound-proof room, illuminated by a white 80 W lamp placed 200 cm over the center of the arena. Rat behavior in the test sessions was videotaped, analyzed, and scored. The following parameters were measured: time spent in the central or peripheral area, locomotor activity, and number of rearing reactions. Each of the behavioral parameters was scored manually by a tally counting method. The behavioral parameters scored were head twitches, wet dog shakes, grooming, licking, number of defecations, and tail rigidity. In the open field test, 21 male Sprague-Dawley rats were used and divided into three groups (n = 7 per group) and received different doses of AKB48 according to the CPP protocol. After treatment, the animals were leaved undisturbed for 10 min in the arena and then observed for 30 min.

For test [5], the system named is rats. In words: Startle and pre-pulse inhibition. The procedure:
As previously reported ([Marti et al., 2019]), rats were tested for acoustic startle reactivity in startle chambers (Ugo Basile apparatus, Milan, Italy) consisting of a sound-attenuated, lighted, and ventilated enclosure holding a transparent non-restrictive Perspex® cage (modified version for rats 200 × 90 × 80 mm). A loudspeaker mounted laterally by the holder produced all acoustic stimuli. Peaks and amplitudes of the startle response were detected by a load cell. At the onset of the startling stimulus, 300 ms readings were recorded, and the wave amplitude evoked by the movement of the rat startle response was measured. Acoustic startle test sessions consisted of startle trials (pulse-alone) and pre-pulse trials (pre-pulse + pulse). The pulse-alone trial consisted of a 40 ms 120 dB pulse. Pre-pulse + pulse trial sequences consisted of a 20 ms acoustic pre-pulse, 80 ms delay, and then a 40 ms, 120 dB startle pulse (100 ms onset–onset). There was an average of 15 s (range = from 9 to 21 s) between the trials. Each startle session began with a 10 min acclimation period with a 65 dB broadband white noise that was present continuously throughout the session. The test session contained 40 trials composed by pulse-alone and pre-pulse + pulse trials (with three different pre-pulses of 68, 75, and 85 dB) presented in a pseudorandomized order. Rats were placed in the startle chambers 5 min after treatment with AKB48. The entire startle/PPI test lasted 20 min. The pre-pulse inhibition (PPI) was expressed as the percentage decrease in the amplitude of the startle reactivity caused by the presentation of the pre-pulse. AKB48 (0.1–3 mg/kg i.p.) was administered intraperitoneally, and startle/PPI responses were recorded 15 min (including the 10 min acclimation period) after drug injections.

Setting [6] is: AKB48 0.1 and 0.5 mg/kg i.p., both doses.
The mark [7] stands for this setting: AKB48 0.1–3 mg/kg i.p., 15 min after treatment.
Setting [8] is: AM251 1 mg/kg i.p. before AKB48 3 mg/kg i.p.

`CCCCCn1nc(C(=O)NC23CC4CC(CC(C4)C2)C3)c2ccccc21` [AKB48, N-(1-adamantyl)-1-pentyl-1H-indazole-3-carboxamide]: the “persistence of the reduction of visual object response” value with rats [1] (AKB48 0.3 mg/kg i.p.) is “transient”. The visual object response result with rats [1] (AKB48 0.1–3.0 mg/kg i.p., 180 min observation) is given as “dose-dependently reduced”. For the same compound, the “persistence of the reduction of visual object response” value in the test with rats [1] (AKB48 0.5 and 3.0 mg/kg i.p.) is reported as “up to 180 min”. In addition, in the test on rats [2] (AKB48, only at the highest dose (3 mg/kg i.p.)), the “reduction of overall tactile response” value is about 23%. The “persistence of the reduction of tactile response” value in the test with rats [2] (AKB48 highest dose (3 mg/kg i.p.)) is “up to 60 min”. Besides, the “threshold to acute mechanical pain stimulus (tail pinch test)” value in the test with rats [3] (AKB48 0.1–3 mg/kg i.p.) is given as “slightly increased”. In the test with rats [4] (AKB48 0.5 mg/kg), the “distance traveled in the central area” value was “reduced”, the “time spent in the central area” value is listed as “reduced” and the total distance traveled result was “reduced”. Moreover, in the test on rats [4] (AKB48 0.1 and 0.5 mg/kg i.p.), the amount of defecation entry is reported as “did not affect”, the grooming result was “did not affect”, the head shaking entry is recorded as “did not affect” and the rearing result is “no effect”. Besides, in the test on rats [4] (AKB48 0.1 and 0.5 mg/kg i.p.), the spontaneous locomotor activity entry is “reduced” and the wet dog shaking result is listed as “did not affect”. Besides, in the test on rats [4] (setting [6]), the licking result is “decrease” and the tail rigidity entry is “significant increase”. For the same compound, in the test on rats [5] (setting [7]), the “PPI at 68 dB of pre-pulse intensity” value is recorded as “inhibited” and the “PPI at 75 dB of pre-pulse intensity” value is on record as “inhibited”. The inhibition (commonly how much of the control response was suppressed) at 3 mg/kg in the test with rats [5] (Rattus norvegicus, 0.25 h, AKB48 3 mg/kg, 15 min after administration, read-out: inhibition of startle amplitude) was about 50%.

`Cc1c(C(=O)NN2CCCCC2)nn(-c2ccc(Cl)cc2Cl)c1-c1ccc(I)cc1` [AM251, 1-(2,4-dichlorophenyl)-5-(4-iodophenyl)-4-methyl-N-(piperidin-1-yl)-1H-pyrazole-3-carboxamide, reference compound]: the “visual object response, AM251 alone” value with rats [1] (AM251 1 mg/kg i.p. alone) is on record as “did not alter”. In the test on rats [1] (setting [8]), the “inhibition of visual object response induced by AKB48, after AM251 pre-treatment” value is recorded as “prevented”. Further, the “response to AM251 alone in the tactile response section” value in the test with rats [2] (AM251 1 mg/kg i.p. alone (data not shown)) is on record as “did not alter”. Further, in the test on rats [2] (setting [8]), the “inhibition of overall tactile response induced by AKB48, after AM251 pre-treatment” value is “prevented”. Moreover, the “threshold to acute mechanical pain stimuli, AM251 alone” value in the test on rats [3] (AM251 1 mg/kg i.p. alone) is “did not alter”. In addition, the “AKB48 effect on mechanical pain threshold, after AM251 pre-treatment” value in the test with rats [3] (AM251 1 mg/kg i.p. before AKB48 3 mg/kg) was “prevented”. Also, in the test on rats [5] (AM251 1 mg/kg i.p. + AKB48), the “inhibitory effect of AKB48 on PPI at 68 dB, with AM251” value was “prevented”; the “inhibitory effect of AKB48 on PPI at 75 dB, with AM251” value was “prevented”; the “inhibitory effect of AKB48 on startle, with AM251” value is recorded as “prevented”. Besides, the “startle response, AM251 alone” value in the test on rats [5] (AM251 1 mg/kg i.p. alone) was “did not modify”.
